Data taken from the supplement of paper PMC10627819.
≈ marks a conversion by molar mass, not a printed value.

Key:
B. subtilis 168 [1] = tested on: B. subtilis 168
S. aureus DSM 20231 [2] = tested on: S. aureus DSM 20231
S. aureus Newman [3] = tested on: S. aureus Newman
S. pneumoniae D39V [4] = tested on: S. pneumoniae D39V
B. subtilis 168 [5] = assay: fitness (endpoint OD595 vs no drug) (fraction); higher = more growth
Summary of the method: (§1)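 Fitness expresses the optical density reached at the stationary-phase transition as a fraction of the robust mean of no-drug control wells. It is capped at 1. Measurements were OD595 every 30 min for 14 h at 37 °C after inoculation of 384-well plates at OD595 0.01 (30 µl, or 55 µl for S. pneumoniae), minus the first reading.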

S. aureus DSM 20231 [6] = assay: as above
Summary of the method: as §1

S. aureus Newman [7] = assay: as above
Summary of the method: as §1

S. pneumoniae D39V [8] = assay: as above
Summary of the method: as §1

CC[C@H](C)[C@H](N)C1=N[C@H](C(=O)N[C@@H](CC(C)C)C(=O)N[C@H](CCC(=O)O)C(=O)N[C@H](C(=O)N[C@H]2CCCCNC(=O)[C@H](CC(N)=O)NC(=O)[C@@H](CC(=O)O)NC(=O)[C@H](Cc3cnc[nH]3)NC(=O)[C@@H](Cc3ccccc3)NC(=O)[C@H]([C@@H](C)CC)NC(=O)[C@@H](CCCN)NC2=O)[C@@H](C)CC)CS1 [Bacitracin]
main component drawn
Details	MIC [µg/mL]
B. subtilis 168 [1]	300 (≈ 211 µM)
S. aureus DSM 20231 [2]	80 (≈ 56.2 µM)
S. aureus Newman [3]	75 (≈ 52.7 µM)
S. pneumoniae D39V [4]	1.17 (≈ 0.824 µM)

fitness, main component drawn
Details	18.75 µg/mL	37.5 µg/mL	75 µg/mL	150 µg/mL
B. subtilis 168 [5]	–	0.936	0.912	0.802
S. aureus DSM 20231 [6]	0.628	0.0499	0.0064	–
S. aureus Newman [7]	0.683	0.275	0	–

CO[C@@]12[C@H](COC(N)=O)C3=C(C(=O)C(C)=C(N)C3=O)N1C[C@@H]1N[C@@H]12 [Mitomycin C]
Details	MIC [µg/mL]
B. subtilis 168 [1]	0.25 (≈ 0.748 µM)
S. aureus DSM 20231 [2]	0.069 (≈ 0.206 µM)
S. aureus Newman [3]	0.069 (≈ 0.206 µM)
S. pneumoniae D39V [4]	0.062 (≈ 0.185 µM)

Details	fitness
B. subtilis 168 [5], 0.0312 µg/mL	0.78
B. subtilis 168 [5], 0.0625 µg/mL	0.582
B. subtilis 168 [5], 0.125 µg/mL	0.0244
S. aureus DSM 20231 [6], 0.0156 µg/mL	0.844
S. aureus DSM 20231 [6], 0.0312 µg/mL	0.775
S. aureus DSM 20231 [6], 0.0625 µg/mL	0.59
S. aureus DSM 20231 [6], 0.1562 µg/mL	0.886
S. aureus Newman [7], 0.0156 µg/mL	0.71
S. aureus Newman [7], 0.0312 µg/mL	0.618
S. aureus Newman [7], 0.0625 µg/mL	0.452
S. pneumoniae D39V [8], 0.002 µg/mL	0.823
S. pneumoniae D39V [8], 0.004 µg/mL	0.754
S. pneumoniae D39V [8], 0.008 µg/mL	0.554

CN[C@@H]1[C@H](O)[C@H](NC)[C@H]2O[C@@]3(O)C(=O)C[C@@H](C)O[C@H]3O[C@@H]2[C@H]1O [Spectinomycin]
Details	MIC [µg/mL]
B. subtilis 168 [1]	8 (≈ 24.1 µM)
S. aureus DSM 20231 [2]	16 (≈ 48.1 µM)
S. aureus Newman [3]	16 (≈ 48.1 µM)
S. pneumoniae D39V [4]	64 (≈ 193 µM)

fitness
Details	B. subtilis 168 [5]	S. aureus DSM 20231 [6]	S. aureus Newman [7]	S. pneumoniae D39V [8]
2 µg/mL	0.992	–	–	–
4 µg/mL	0.964	0.966	0.963	0.956
8 µg/mL	0.941	0.961	0.93	0.865
16 µg/mL	–	0.851	0.893	0.702

CN[C@@H]1[C@H](O[C@H]2[C@H](O[C@H]3[C@H](O)[C@@H](O)[C@H](N=C(N)N)[C@@H](O)[C@@H]3N=C(N)N)O[C@@H](C)[C@]2(O)C=O)O[C@@H](CO)[C@H](O)[C@H]1O [Streptomycin]
Details	MIC [µg/mL]
B. subtilis 168 [1]	8 (≈ 13.8 µM)
S. aureus DSM 20231 [2]	8 (≈ 13.8 µM)
S. aureus Newman [3]	8 (≈ 13.8 µM)
S. pneumoniae D39V [4]	8 (≈ 13.8 µM)

fitness
Details	1 µg/mL	2 µg/mL	4 µg/mL	8 µg/mL
B. subtilis 168 [5]	–	0.954	0.775	0.0378
S. aureus Newman [7]	0.971	0.954	0.899	0.579
S. pneumoniae D39V [8]	–	0.932	0.943	0.914
